Source: ChEMBL document CHEMBL1671626, “In vitro profiling of ceftaroline against a collection of recent bacterial clinical isolates from across the United States” (2008)
≈ marks a conversion by molar mass, not a printed value.

Legend:
Format in all cases: functional
Staphylococcus aureus [1] = test: Antibacterial activity against methicillin-resistant Staphylococcus aureus by CLSI M7-A7 broth microdilution method
Staphylococcus aureus [2] = test: Antibacterial activity against coagulase-negative and oxacillin-susceptible Staphylococcus aureus assessed as resistant isolates by CLSI M7-A7 broth microdilution method
Staphylococcus aureus [3] = test: Antibacterial activity against coagulase-negative and oxacillin-susceptible Staphylococcus aureus assessed as susceptible isolates by CLSI M7-A7 broth microdilution method
Staphylococcus aureus [4] = test: Antibacterial activity against methicillin-susceptible Staphylococcus aureus assessed as susceptible isolates by CLSI M7-A7 broth microdilution method
Enterococcus faecium = test: Antibacterial activity against vancomycin-resistant Enterococcus faecium by CLSI M7-A7 broth microdilution method
Moraxella catarrhalis = test: Antibacterial activity against beta lactamase-positive Moraxella catarrhalis by CLSI M7-A7 broth microdilution method
Staphylococcus aureus [5] = test: Antibacterial activity against coagulase-negative and oxacillin-resistant Staphylococcus aureus assessed as susceptible isolates by CLSI M7-A7 broth microdilution method
Staphylococcus aureus [6] = test: Antibacterial activity against coagulase-negative and oxacillin-susceptible Staphylococcus aureus by CLSI M7-A7 broth microdilution method
Enterococcus faecalis [7] = test: Antibacterial activity against vancomycin-resistant Enterococcus faecalis by CLSI M7-A7 broth microdilution method
Staphylococcus aureus [8] = test: Antibacterial activity against coagulase-negative and oxacillin-resistant Staphylococcus aureus by CLSI M7-A7 broth microdilution method
Staphylococcus aureus [9] = test: Antibacterial activity against methicillin-susceptible Staphylococcus aureus by CLSI M7-A7 broth microdilution method
Staphylococcus aureus [10] = test: Antibacterial activity against methicillin-resistant Staphylococcus aureus assessed as resistant isolates by CLSI M7-A7 broth microdilution method
Staphylococcus aureus [11] = test: Antibacterial activity against coagulase-negative and oxacillin-resistant Staphylococcus aureus assessed as resistant isolates by CLSI M7-A7 broth microdilution method
Staphylococcus aureus [12] = test: Antibacterial activity against methicillin-susceptible Staphylococcus aureus assessed as resistant isolates by CLSI M7-A7 broth microdilution method
Staphylococcus aureus [13] = test: Antibacterial activity against methicillin-resistant Staphylococcus aureus assessed as susceptible isolates by CLSI M7-A7 broth microdilution method
Enterococcus faecalis [14] = test: Antibacterial activity against vancomycin-susceptible Enterococcus faecalis by CLSI M7-A7 broth microdilution method
Klebsiella pneumoniae [15] = test: Antibacterial activity against ceftazidime-nonsusceptible Klebsiella pneumoniae by CLSI M7-A7 broth microdilution method
Enterobacteriaceae [16] = test: Antibacterial activity against ceftazidime-susceptible Enterobacteriaceae assessed as susceptible isolates by CLSI M7-A7 broth microdilution method
Enterobacter cloacae [17] = test: Antibacterial activity against ceftazidime-nonsusceptible Enterobacter cloacae by CLSI M7-A7 broth microdilution method
Acinetobacter [18] = test: Antibacterial activity against multidrug-resistant Acinetobacter assessed as susceptible isolates by CLSI M7-A7 broth microdilution method
Escherichia coli [19] = test: Antibacterial activity against ceftazidime-nonsusceptible Escherichia coli assessed as susceptible isolates by CLSI M7-A7 broth microdilution method
Morganella morganii [20] = test: Antibacterial activity against ceftazidime-susceptible Morganella morganii by CLSI M7-A7 broth microdilution method
Enterobacter cloacae [21] = test: Antibacterial activity against ceftazidime-susceptible Enterobacter cloacae assessed as susceptible isolates by CLSI M7-A7 broth microdilution method
Citrobacter freundii [22] = test: Antibacterial activity against ceftazidime-nonsusceptible Citrobacter freundii assessed as susceptible isolates by CLSI M7-A7 broth microdilution method
Escherichia coli [23] = test: Antibacterial activity against ceftazidime-susceptible Escherichia coli assessed as resistant isolates by CLSI M7-A7 broth microdilution method
Morganella morganii [24] = test: Antibacterial activity against ceftazidime-susceptible Morganella morganii assessed as resistant isolates by CLSI M7-A7 broth microdilution method
Escherichia coli [25] = test: Antibacterial activity against ceftazidime-susceptible Escherichia coli assessed as susceptible isolates by CLSI M7-A7 broth microdilution method
Proteus mirabilis [26] = test: Antibacterial activity against ceftazidime-susceptible Proteus mirabilis assessed as resistant isolates by CLSI M7-A7 broth microdilution method
Acinetobacter [27] = test: Antibacterial activity against multidrug-resistant Acinetobacter by CLSI M7-A7 broth microdilution method
Citrobacter freundii [28] = test: Antibacterial activity against ceftazidime-susceptible Citrobacter freundii assessed as susceptible isolates by CLSI M7-A7 broth microdilution method
Acinetobacter [29] = test: Antibacterial activity against imipenem-susceptible Acinetobacter by CLSI M7-A7 broth microdilution method
Proteus mirabilis [30] = test: Antibacterial activity against ceftazidime-susceptible Proteus mirabilis assessed as susceptible isolates by CLSI M7-A7 broth microdilution method
Acinetobacter [31] = test: Antibacterial activity against imipenem-susceptible Acinetobacter assessed as resistant isolates by CLSI M7-A7 broth microdilution method
Enterobacteriaceae [32] = test: Antibacterial activity against ceftazidime-nonsusceptible Enterobacteriaceae by CLSI M7-A7 broth microdilution method
Serratia marcescens [33] = test: Antibacterial activity against ceftazidime-susceptible Serratia marcescens by CLSI M7-A7 broth microdilution method
Enterobacteriaceae [34] = test: Antibacterial activity against ceftazidime-nonsusceptible Enterobacteriaceae assessed as susceptible isolates by CLSI M7-A7 broth microdilution method
Providencia sp. [35] = test: Antibacterial activity against ceftazidime-susceptible Providencia sp. by CLSI M7-A7 broth microdilution method
Klebsiella pneumoniae [36] = test: Antibacterial activity against ceftazidime-nonsusceptible Klebsiella pneumoniae assessed as resistant isolates by CLSI M7-A7 broth microdilution method
Enterobacter cloacae [37] = test: Antibacterial activity against ceftazidime-susceptible Enterobacter cloacae assessed as resistant isolates by CLSI M7-A7 broth microdilution method
Citrobacter freundii [38] = test: Antibacterial activity against ceftazidime-nonsusceptible Citrobacter freundii by CLSI M7-A7 broth microdilution method
Enterobacter cloacae [39] = test: Antibacterial activity against ceftazidime-nonsusceptible Enterobacter cloacae assessed as resistant isolates by CLSI M7-A7 broth microdilution method
Enterobacter cloacae [40] = test: Antibacterial activity against ceftazidime-susceptible Enterobacter cloacae by CLSI M7-A7 broth microdilution method
Escherichia coli [41] = test: Antibacterial activity against ceftazidime-susceptible Escherichia coli by CLSI M7-A7 broth microdilution method
Morganella morganii [42] = test: Antibacterial activity against ceftazidime-susceptible Morganella morganii assessed as susceptible isolates by CLSI M7-A7 broth microdilution method
Citrobacter freundii [43] = test: Antibacterial activity against ceftazidime-susceptible Citrobacter freundii assessed as resistant isolates by CLSI M7-A7 broth microdilution method
Acinetobacter [44] = test: Antibacterial activity against multidrug-resistant Acinetobacter assessed as resistant isolates by CLSI M7-A7 broth microdilution method
Haemophilus influenzae [45] = test: Antibacterial activity against beta lactamase-negative Haemophilus influenzae by CLSI M7-A7 broth microdilution method
Proteus mirabilis [46] = test: Antibacterial activity against ceftazidime-susceptible Proteus mirabilis by CLSI M7-A7 broth microdilution method
Haemophilus influenzae [47] = test: Antibacterial activity against beta lactamase-positive Haemophilus influenzae by CLSI M7-A7 broth microdilution method
Serratia marcescens [48] = test: Antibacterial activity against ceftazidime-susceptible Serratia marcescens assessed as resistant isolates by CLSI M7-A7 broth microdilution method
Klebsiella pneumoniae [49] = test: Antibacterial activity against ceftazidime-susceptible Klebsiella pneumoniae by CLSI M7-A7 broth microdilution method
Haemophilus influenzae [50] = test: Antibacterial activity against beta lactamase-positive Haemophilus influenzae assessed as susceptible isolates by CLSI M7-A7 broth microdilution method
Acinetobacter [51] = test: Antibacterial activity against imipenem-susceptible Acinetobacter assessed as susceptible isolates by CLSI M7-A7 broth microdilution method
Escherichia coli [52] = test: Antibacterial activity against ceftazidime-nonsusceptible Escherichia coli by CLSI M7-A7 broth microdilution method
Enterobacteriaceae [53] = test: Antibacterial activity against ceftazidime-susceptible Enterobacteriaceae assessed as resistant isolates by CLSI M7-A7 broth microdilution method
Enterobacteriaceae [54] = test: Antibacterial activity against ceftazidime-susceptible Enterobacteriaceae by CLSI M7-A7 broth microdilution method
Klebsiella pneumoniae [55] = test: Antibacterial activity against ceftazidime-susceptible Klebsiella pneumoniae assessed as resistant isolates by CLSI M7-A7 broth microdilution method
Citrobacter freundii [56] = test: Antibacterial activity against ceftazidime-nonsusceptible Citrobacter freundii assessed as resistant isolates by CLSI M7-A7 broth microdilution method
Escherichia coli [57] = test: Antibacterial activity against ceftazidime-nonsusceptible Escherichia coli assessed as resistant isolates by CLSI M7-A7 broth microdilution method
Klebsiella pneumoniae [58] = test: Antibacterial activity against ceftazidime-nonsusceptible Klebsiella pneumoniae assessed as susceptible isolates by CLSI M7-A7 broth microdilution method
Citrobacter freundii [59] = test: Antibacterial activity against ceftazidime-susceptible Citrobacter freundii by CLSI M7-A7 broth microdilution method
Enterobacteriaceae [60] = test: Antibacterial activity against ceftazidime-nonsusceptible Enterobacteriaceae assessed as resistant isolates by CLSI M7-A7 broth microdilution method
Providencia sp. [61] = test: Antibacterial activity against ceftazidime-susceptible Providencia sp. assessed as susceptible isolates by CLSI M7-A7 broth microdilution method
Providencia sp. [62] = test: Antibacterial activity against ceftazidime-susceptible Providencia sp. assessed as resistant isolates by CLSI M7-A7 broth microdilution method

Cc1onc(-c2ccccc2)c1C(=O)N[C@@H]1C(=O)N2[C@@H]1SC(C)(C)[C@@H]2C(=O)O [OXACILLIN]
MIC50 (Staphylococcus aureus [1]): > 8 µg/mL
MIC90 (Staphylococcus aureus [1]): > 8 µg/mL
Activity (Staphylococcus aureus [2]): 0%
Activity (Staphylococcus aureus [3]): 100%
Activity (Staphylococcus aureus [4]): 100%
MIC (Enterococcus faecium): > 8 µg/mL
MIC50 (Enterococcus faecium): > 8 µg/mL
MIC90 (Enterococcus faecium): > 8 µg/mL
MIC50 (Moraxella catarrhalis): 4 µg/mL (≈ 9.96 µM)
MIC90 (Moraxella catarrhalis): > 8 µg/mL
Activity (Staphylococcus aureus [5]): 0%
MIC50 (Staphylococcus aureus [6]): 0.12 µg/mL (≈ 0.299 µM)
MIC90 (Staphylococcus aureus [6]): 0.25 µg/mL (≈ 0.623 µM)
MIC50 (Enterococcus faecalis [7]): > 8 µg/mL
MIC90 (Enterococcus faecalis [7]): > 8 µg/mL
MIC50 (Staphylococcus aureus [8]): > 8 µg/mL
MIC90 (Staphylococcus aureus [8]): > 8 µg/mL
MIC50 (Staphylococcus aureus [9]): 0.25 µg/mL (≈ 0.623 µM)
MIC90 (Staphylococcus aureus [9]): 0.5 µg/mL (≈ 1.25 µM)
Activity (Staphylococcus aureus [10]): 100%
Activity (Staphylococcus aureus [11]): 100%
Activity (Staphylococcus aureus [12]): 0%
Activity (Staphylococcus aureus [13]): 0%
MIC50 (Enterococcus faecalis [14]): > 8 µg/mL
MIC90 (Enterococcus faecalis [14]): > 8 µg/mL

GENTAMICIN
MIC50 (Klebsiella pneumoniae [15]): 8 µg/mL
MIC90 (Klebsiella pneumoniae [15]): > 16 µg/mL
Activity (Enterobacteriaceae [16]): 92.6%
MIC50 (Enterobacter cloacae [17]): 0.5 µg/mL
MIC90 (Enterobacter cloacae [17]): 16 µg/mL
Activity (Acinetobacter [18]): 18.8%
Activity (Escherichia coli [19]): 46%
MIC50 (Morganella morganii [20]): 0.5 µg/mL
MIC90 (Morganella morganii [20]): 4 µg/mL
Activity (Enterobacter cloacae [21]): 96%
Activity (Citrobacter freundii [22]): 81.8%
Activity (Escherichia coli [23]): 7.5%
Activity (Morganella morganii [24]): 8.8%
Activity (Escherichia coli [25]): 91.9%
Activity (Proteus mirabilis [26]): 8.6%
MIC50 (Acinetobacter [27]): > 16 µg/mL
MIC90 (Acinetobacter [27]): > 16 µg/mL
Activity (Citrobacter freundii [28]): 88%
MIC50 (Acinetobacter [29]): 1 µg/mL
MIC90 (Acinetobacter [29]): > 16 µg/mL
Activity (Proteus mirabilis [30]): 84.5%
Activity (Acinetobacter [31]): 21.3%
MIC50 (Enterobacteriaceae [32]): 4 µg/mL
MIC90 (Enterobacteriaceae [32]): > 16 µg/mL
MIC50 (Serratia marcescens [33]): 0.5 µg/mL
MIC90 (Serratia marcescens [33]): 1 µg/mL
Activity (Enterobacteriaceae [34]): 52.3%
MIC50 (Providencia sp. [35]): 2 µg/mL
MIC90 (Providencia sp. [35]): > 16 µg/mL
Activity (Klebsiella pneumoniae [36]): 43.9%
Activity (Enterobacter cloacae [37]): 2%
MIC50 (Citrobacter freundii [38]): 0.5 µg/mL
MIC90 (Citrobacter freundii [38]): 16 µg/mL
Activity (Enterobacter cloacae [39]): 17.1%
MIC50 (Enterobacter cloacae [40]): 0.25 µg/mL
MIC90 (Enterobacter cloacae [40]): 0.5 µg/mL
MIC50 (Escherichia coli [41]): 0.5 µg/mL
MIC90 (Escherichia coli [41]): 2 µg/mL
Activity (Morganella morganii [42]): 91.2%
Activity (Citrobacter freundii [43]): 10%
Activity (Acinetobacter [44]): 75%
MIC50 (Haemophilus influenzae [45]): 1 µg/mL
MIC90 (Haemophilus influenzae [45]): 2 µg/mL
MIC50 (Proteus mirabilis [46]): 1 µg/mL
MIC90 (Proteus mirabilis [46]): 8 µg/mL
MIC50 (Haemophilus influenzae [47]): 1 µg/mL
MIC90 (Haemophilus influenzae [47]): 2 µg/mL
Activity (Serratia marcescens [48]): 1.7%
MIC50 (Klebsiella pneumoniae [49]): 0.25 µg/mL
MIC90 (Klebsiella pneumoniae [49]): 0.5 µg/mL
Activity (Haemophilus influenzae [50]): 0%
Activity (Acinetobacter [51]): 74.5%
MIC50 (Escherichia coli [52]): 16 µg/mL
MIC90 (Escherichia coli [52]): > 16 µg/mL
Activity (Enterobacteriaceae [53]): 5.9%
MIC50 (Enterobacteriaceae [54]): 0.5 µg/mL
MIC90 (Enterobacteriaceae [54]): 2 µg/mL
Activity (Klebsiella pneumoniae [55]): 1.9%
Activity (Citrobacter freundii [56]): 18.2%
Activity (Escherichia coli [57]): 50.8%
Activity (Klebsiella pneumoniae [58]): 43.9%
MIC50 (Citrobacter freundii [59]): 0.5 µg/mL
MIC90 (Citrobacter freundii [59]): 8 µg/mL
Activity (Enterobacteriaceae [60]): 40.5%
Activity (Providencia sp. [61]): 74.1%
Activity (Providencia sp. [62]): 14.8%
